Results as given in patent US5843916A, “Cyclic amp analogues, individually and in pairs, to inhibit neoplastic cell growth” (priority 1994, dated 1998).
Where two headings read alike, the source gives them in different places.

Experiments:
[1] = system: breast (MCF-7) and colon (LS-174T) cancer cell lines; test: Growth inhibition of breast and colon cancer cells (Table 1); assay type: cell-based, human; conditions: Homo sapiens
Description: The compounds of the present invention were added using 100X concentrated stock solutions. At desired times, cell counts in duplicate were performed on a Coulter counter after harvesting the cells with gentle trypsinization. […] Cell counts were performed on each of three or more separate experiments, and the average values are expressed as percent growth inhibition as compared with untreated control cells. | ^a The values of percentage growth inhibition were determined from th | doseresponse curve experiments. Each value represents an average value an | range (in parentheses) obtained from three or more separate experiments. | The cell counts in duplicate were performed at day 3 and day 4 after two | treatments (day 0 and day 2) with analogs (seeding on day -1).

[2] = system: LS-174T human colon carcinoma cells; test: Growth inhibition of LS-174T cells (Example 4, Table 18); assay type: cell-based
Description: LS-174T human colon carcinoma cells were obtained from the National Cancer Institute, Division of Cancer Treatment, Bethesda, Md., and were grown in Eagle's minimum essential medium supplemented with 10% heat-inactivated fetal bovine serum, Eagle's minimum essential medium nonessential amino acids, 20 mM 4-(2-hydroxyethyl)-1-piperazineethanesulfonic acid, 2mM glutamine, and penicillin-streptomycin (Gibco). The medium was changed every 48 hours.
LS-174T cells were seeded at a density of 2×10^5 / 60 mm dish. […] At desired times, cell counts were performed in duplicate on a Coulter Counter after harvesting cells with gentle trypsinization.
The percentage growth inhibition values shown at 10
and 50 μM analogue concentrations were determined from
the dose-response curve experiments like those shown in
FIG. 1 and represent an average value obtained for each
analogue from two or more separate experiments. Sp-6-SET-

[3] = system: four leukemic cell lines (HL-60, K-562, myc-K562, Molt-4); test: Growth inhibition of leukemic cell lines; assay type: cell-based, human; conditions: 0.1 mM, alone
[4] = system: breast and colon cancer lines (MCF-7, T-47D, ZR-75-1, MCF-7ras, MDA-MB-231, BT-20, HBL-100, LS-174T, WiDr, HT-29); test: Growth inhibition of breast and colon cancer lines (FIG. 1); assay type: cell-based, human; conditions: 0.1 mM, alone
[5] = 72 h, 50 μM, day 3, average (range), read-out: % Growth Inhibition, Day 3
[6] = 96 h, 50 μM, day 4, average (range), read-out: % Growth Inhibition, Day 4
[7] = 50 micromolar, read-out: growth inhibition

Structure (SMILES)	inhibition at 50 µM [1, 5] [%]	inhibition at 50 µM [1, 6] [%]	other results
O=P1(O)OC[C@H]2O[C@@H](n3c(SCc4ccccc4)nc4c(NCc5ccccc5)ncnc43)[C@H](O)[C@@H]2O1 [N^6-benzyl-8-benzylthio-cAMP]	25	23	–
Nc1nc(Cl)nc2c1ncn2[C@@H]1O[C@@H]2CO[P@](O)(=S)O[C@H]2[C@H]1O [Sp-2-Cl-cAMPS, Sp-2-Chloroadenosine-3':5'-monophosphorothioate]	–	–	inhibition at 10 µM ([2]; Homo sapiens, LS174T): 10%; inhibition at 50 µM ([2]; Homo sapiens, LS174T): 25%; growth inhibitory potency ([2]; LS-174T): least potency
Nc1ncnc2c1nc(NCCO)n2[C@@H]1O[C@@H]2COP(=O)(O)O[C@H]2[C@H]1O [8-β-hydroxyethylamino-cAMP]	15	20	inhibition at 50 µM [1, 7]: ≤ 20%
CN(C)c1nc2c(N)ncnc2n1[C@@H]1O[C@@H]2COP(=O)(O)O[C@H]2[C@H]1O [8-N,N-dimethylamino-cAMP]	0	0	inhibition at 50 µM [1, 7]: ≤ 20%
O=P1(O)OC[C@H]2O[C@@H](n3c(Sc4ccc(Cl)cc4)nc4c(N5CCCCC5)ncnc43)[C@H](O)[C@@H]2O1 [6-piperidino-8-p-chlorophenylthio-cAMP]	33	25	–
Nc1ncnc2c1nc(I)n2[C@@H]1O[C@@H]2COP(=O)(O)O[C@H]2[C@H]1O [8-iodo-cAMP]	26	25	–
O=C(Nc1ccccc1)Nc1ncnc2c1ncn2[C@@H]1O[C@@H]2COP(=O)(O)O[C@H]2[C@H]1O [N^6 -phenylcarbamoyl-cAMP]	10	10	–
Cn1c(=O)c2[nH]cnc2n(C)c1=O [theophylline, reference compound]	–	–	growth inhibitory effect [3]: little or no growth inhibitory effect; growth inhibitory effect [4]: little or no growth inhibitory effect
Nc1ncnc2c1nc(Sc1ccc(Cl)cc1)n2[C@@H]1O[C@@H]2COP(=O)(O)O[C@H]2[C@H]1O [8-p-chlorophenylthio-cAMP]	23	24	–
